Paper PMC7401278, “Sortase A-Inhibitory Metabolites from a Marine-Derived Fungus Aspergillus sp” (Marine Drugs, 2020)
In brackets after ≈: the same amount, converted by molar mass. Like-named read-outs stand apart in the source and are kept apart here.

Experiments:
[1] = test system: S. aureus ATCC6538p; test: Antibacterial activity assay (MIC); type: cell-based; conditions: Staphylococcus aureus, overnight at 37 °C
Method: (§1) Because SrtA inhibitors are expected to serve as anti-infective agents and inhibit bacterial pathogenesis without affecting cell viability, the minimum inhibitory concentrations (MICs) of these compounds were also measured to exclude the possible effects of test compounds on S. aureus cell adhesion to the eukaryotic cell matrix protein fibronectin owing to the inhibition of cell growth.
The MICs of test compounds were determined as previously described. S. aureus ATCC6538p (5 mL) was cultured in tryptic soy broth to saturation at 37 °C and diluted to an OD600 of 0.01. The culture was incubated for an additional 2 h and diluted to an OD600 of 0.005. In each well of a 96-well plate, 180 µL of cells was mixed with 20 µL of a concentrated test compound solution in 10% DMSO (final concentration, 1% DMSO). Culture plates were incubated overnight at 37 °C, and the OD600 was measured using a Multiskan Spectrum spectrophotometer (Thermo Labsystems Inc., Beverly, MA, USA). MIC values were defined as the lowest concentration of the test compounds inhibiting cell growth. Ampicillin was used as a positive control.

[2] = target: T1, recombinant SrtA derived from S. aureus ATCC6538p (Staphylococcus aureus, UniProt Q2FV99); test: SrtA inhibition assay (fluorescence, cleavage of dabcyl-LPETG-edans); type: biochemical; conditions: 37 °C, 1 h
T1 construct: made in house; host or cells: Escherichia coli
T1 sequence (Q2FV99 whole entry): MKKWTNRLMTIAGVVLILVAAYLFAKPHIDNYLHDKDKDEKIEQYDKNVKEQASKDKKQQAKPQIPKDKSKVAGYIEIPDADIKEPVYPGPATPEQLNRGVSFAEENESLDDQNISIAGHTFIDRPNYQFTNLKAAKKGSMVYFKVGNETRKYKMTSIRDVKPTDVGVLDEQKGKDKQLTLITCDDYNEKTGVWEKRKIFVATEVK
Method: Recombinant SrtA derived from S. aureus ATCC6538p was purified from Escherichia coli extracts using metal chelate-affinity chromatography. The enzyme activity was determined from the fluorescence intensity upon cleavage of a peptide substrate containing the LPETG motif. Throughout the separation process, the crude extract and chromatographic fractions containing fungal metabolites of strain F452 inhibited the activity of SrtA. Accordingly, the same bioassay was performed using pure compounds.
The srtA gene from S. aureus ATCC6538p was expressed and recombinant SrtA was purified as previously described. The SrtA inhibition test was carried out by analyzing the increased fluorescence intensity resulting from the cleavage of synthetic peptide substrate dabcyl-LPETG-edans (AnaSpec, Inc., Fremont, CA, USA) with slight modification. The reaction was carried out with 100 μL buffer (50 mM Tris-HCl, 5 mM CaCl2, and 150 mM NaCl, pH 7.5), 7.5 µM synthetic peptide, 7.5 µM purified SrtA, and test samples at various concentrations. […] The SrtA inhibition assay was conducted at 37 °C for 1 h, and inhibition was quantified fluorometrically using a microplate reader (FLx800, BioTek Instruments, Winooski, VT, USA) at excitation and emission wavelengths of 350 and 495 nm, respectively. pHMB and berberine chloride were used as reference inhibitors of SrtA.

[3] = target: T2, SrtA (Staphylococcus aureus, UniProt Q2FV99); test: SrtA enzyme kinetics (Lineweaver-Burk, Dixon plot, dialysis); type: biochemical; conditions: for type of inhibition: Lineweaver and Burk plot, at IC50 or twofold IC50; for binding to SrtA (reversibility): enzyme activity recovered by dialysis within 2 h
T2 construct: made in house; host or cells: Escherichia coli
T2 sequence (Q2FV99 whole entry): as above
Method: To determine the type of inhibition, kinetic studies were performed with compounds 1 and 3 at IC50 or twofold IC50 based on a Lineweaver and Burk plot (Figure 2). Inhibitor constants were obtained by a Dixon plot. […] Moreover, the binding of compounds 1 and 3 to SrtA was reversible because the enzyme activity was indeed recovered by dialysis within 2 h, excluding the possible existence of a covalent bond between inhibitor and enzyme.
All sortase (SrtA) assays were performed at 37 °C in SrtA enzyme buffer as described above. The inhibitors 1 and 3 were dissolved in DMSO and immediately diluted to the desired working concentration with the same SrtA buffer. The enzymatic inhibition measurements were carried out at different substrate concentrations in the presence and absence of a given concentration of inhibitor, and their kinetics were evaluated by the Lineweaver and Burk plot method. For the dialysis kinetic studies, a solution of enzyme (0.96 mL, 75 μM) and fixed inhibitor concentration (0.04 mL) was prepared and dialyzed against 100 mL buffer at 37 °C for 2 h using regenerated cellulose dialysis membranes SPECTRAPOR® (Rancho Dominguez, CA, USA). Aliquots of 100 μL of the enzyme-inhibitor mixture were taken in time intervals of 0, 30, 60, 90, and 120 min and added to 0.020 mL of substrate (7.5 μM), and after an hour of incubation the enzyme activity was measured. A control solution prepared with enzyme and buffer (SrtA buffer, 100 μL; SrtA, 7.5 μM) was treated similarly.

[4] = Cytotoxicity assay (SRB), A549; type: cell-based; conditions: human, A549 (lung cancer) cells, A549, 72 h
Method: as §1
(§2) The effect of compounds (1–8) on cell proliferation was measured by the sulforhodamine B (SRB) cellular protein-staining method. In brief, A549 (lung cancer) and K562 (leukemia) cells (1 × 10^4 cells in 190 μL of complete DMEM) were seeded in 96-well plates with various concentrations of compounds (1–8) and incubated at 37 °C in a humidified atmosphere with 5% CO2. After 72 h of compound (1–8) treatment, the cells were fixed with 10% TCA solution for 1 h, and cellular proteins were stained with a solution of 0.4% SRB in 1% acetic acid. The stained cells were dissolved in 10 mM Tris buffer (pH 10.0). The effect of compounds (1–8) on cell viability was calculated as a percentage relative to a solvent-treated control, and the IC50 values were calculated using a nonlinear regression analysis (percent survival versus concentration). Etoposide was used as a positive control.

[5] = Cytotoxicity assay (SRB), K562; type: cell-based; conditions: human, K562 (leukemia) cells, K562, 72 h
Method: as §1, §2

[6] = test system: S. aureus strain Newman (wild-type) adhesion to fibronectin; test: Fibronectin-binding assay; type: cell-based, Staphylococcus aureus
From the text: An active SrtA enzyme is required for the attachment of S. aureus to eukaryotic cell matrix proteins, such as fibronectin and fibrinogen, thus accelerating bacterial adhesion to host tissues and subsequent invasion. The srtA^− mutant strain cannot bind these proteins. Thus, SrtA inhibitors should inhibit SrtA activity in vivo and in turn reduce fibronectin-binding protein surface display. Initially, the SrtA-mediated fibronectin-binding capacities of S. aureus strain Newman (wild-type) and its isogenic srtA knockout mutant (srtA^−) to fibronectin were evaluated. […] Based on SrtA inhibition intensity, compound 1 was selected. The results of the inhibition of S. aureus adhesion to fibronectin via fibronectin-binding protein by compound 1 are shown in Figure 3b.
S. aureus strains used were Newman (wild-type) and the isogenic srtA knockout mutant (srtA^−). These strains were cultured in tryptic soy broth at 37 °C at 200 rpm up to mid-log phase (OD600 = 0.5). The fibronectin-binding assay was performed as described previously. Cells were treated with test compounds at their indicated concentrations. Every 30 min for 2.5 h, a 0.65 mL cell suspension was centrifuged at 10,000× g for 10 min, and the supernatant was eliminated. […] Plates were dried overnight and absorbance was measured at 560 nm using a microplate reader.

[7] = test system: PC-12 cells; set-up: method as in PMID 14698172; conditions: cited from earlier work
[8] = test system: Colletotrichum acutatum; set-up: method as in PMID 26998701; conditions: cited from earlier work
[9] = test system: Bacillus subtilis; set-up: method as in PMID 26363876; conditions: cited from earlier work
[10] = test system: human prostate cancer cell line PC3; set-up: method as in PMID 26363876; conditions: cited from earlier work
[11] = SrtA IC50, recombinant SrtA, value in parentheses

SMILES	MIC [1]	MIC ([1]; value in parentheses)	IC50 ([2]; SrtA IC50, recombinant SrtA)	IC50 [2, 11]	IC50 at 72 h [4]	IC50 at 72 h [5]	further results
CC1(C)S[C@@H]2[C@H](NC(=O)[C@H](N)c3ccccc3)C(=O)N2[C@H]1C(=O)O [Ampicillin, reference compound]	0.4 µM	0.1 µg/mL	–	–	–	–	–
COc1ccc2cc3[n+](cc2c1OC)CCc1cc2c(cc1-3)OCO2 [Berberine chloride, berberine chloride, reference compound]	> 332 µM	> 128 µg/mL	85.9 ± 1.2 µM	94.8 µM	–	–	–
CC1CCC2C(C=CC(C)(O)C2(C)C(=O)CCO)C1 (stereo not drawn) [Compound 1, aspermytin A]	> 480 µM	> 128 µg/mL	146 ± 2.3 µM	146 ± 0.6 µM	> 100 µM	> 100 µM	Ki [3]: 265 µM; type of inhibition [3]: mixed inhibitor; binding to SrtA (reversibility) [3]: reversible; onset and magnitude of inhibition of Newman strain adhesion to fibronectin ([6]; 4× the SrtA IC50 value): comparable to the behavior of the untreated srtA knockout mutant; bacterial adherence to fibronectin-coated surfaces ([6]; strain Newman, 0-, 1-, 2-, or 4-fold the SrtA IC50): significantly reduced; neurotrophic effects [7]: significant neurotrophic effects
CCC(C)C1NC(=O)C(C(C)C)n2c1nc1ccc(OC)cc1c2=O (stereo not drawn) [Compound 2, versicomide A]	> 373 µM	> 128 µg/mL	269 ± 3.9 µM	269.3 ± 1.4 µM	13 to 50 µM	13 to 50 µM	–
CCC(C)C1NC(=O)C(C(C)C)n2c1nc1c(c2=O)C=C(OC)C=CO1 (stereo not drawn) [Compound 3, versicoloid A]	> 356 µM	> 128 µg/mL	193 ± 2.5 µM	193.4 ± 0.899 µM	13 to 50 µM	13 to 50 µM	Ki [3]: 83 µM; type of inhibition [3]: uncompetitive inhibitor; binding to SrtA (reversibility) [3]: reversible; minimum inhibitory concentration (MIC) [8]: 1.6 µg/mL (≈ 4.45 µM)
CC1C(=O)N2c3ccccc3C3(O)CC(n4cnc5ccccc5c4=O)C(=O)N1C23 (stereo not drawn) [Compound 4, isochaetominine A]	> 318 µM	> 128 µg/mL	268 ± 4.1 µM	267.9 ± 1.5 µM	13 to 50 µM	13 to 50 µM	–
CCC1C(=O)N2c3ccccc3C3(O)CC(n4cnc5ccccc5c4=O)C(=O)N1C23 (stereo not drawn) [Compound 5, isochaetominine B]	> 307 µM	> 128 µg/mL	232 ± 3.7 µM	232.4 ± 1.4 µM	13 to 50 µM	13 to 50 µM	–
CC(C)C1C(=O)N2c3ccccc3C3(O)CC(n4cnc5ccccc5c4=O)C(=O)N1C23 (stereo not drawn) [Compound 6, isochaetominine C]	> 297 µM	> 128 µg/mL	216 ± 2.5 µM	216.3 ± 1.1 µM	13 to 50 µM	13 to 50 µM	inhibition against Bacillus subtilis [9]: weak inhibition
CC(C)C1C(=O)N2c3ccccc3C3(O)CC(n4cnc5ccccc5c4=O)C(=O)N1C23 (stereo not drawn) [Compound 7, 14-epi-isochaetominine C]	–	–	237 ± 3.8 µM	237.2 ± 1.2 µM	–	–	cytotoxic activity [10]: weak cytotoxic activity
CC12NC(=O)C(Cc3c1[nH]c1ccccc31)n1c2nc2ccccc2c1=O (stereo not drawn) [Compound 8, fumiquinazoline K]	> 359 µM	> 128 µg/mL	–	–	> 100 µM	> 100 µM	IC50 ([2]; read-out: SrtA IC50, recombinant SrtA): 235 ± 2.6 µM; IC50 ([2]; read-out: SrtA IC50, recombinant SrtA, value in parentheses): 235.1 ± 0.9 µM
COc1cc([C@@H]2c3cc4c(cc3[C@@H](O[C@@H]3O[C@@H]5CO[C@@H](C)O[C@H]5[C@H](O)[C@H]3O)[C@H]3COC(=O)[C@H]23)OCO4)cc(OC)c1O [etoposide, reference compound]	–	–	–	–	0.5 µM	0.5 µM	–
O=C(O)c1cc[c]([Hg][OH])cc1 [pHMB, para-hydroxymercuribenzoic acid, reference compound]	–	–	–	–	–	–	IC50 ([2]; recombinant SrtA, read-out: SrtA IC50): 112 ± 1.7 µM; SrtA IC50 ([2]; recombinant SrtA, value in parentheses): 33.1 ± 0.5 µg/mL
